Measurements from patent US9518977B2, “Microfluidic assay apparatus and methods of use” (University of Washington through its Center for …, priority 2012, dated 2016).
“Also recorded” adds a separate entry of the source.

System: GFP-labelled glioma cells in human GBM mouse xenograft slice
Assay: Drug testing on human GBM xenograft slices in microfluidic apparatus
Format: cell-based
Conditions: 1 mM TMZ in culture medium, 48 hours selective exposure, 400 μm-thick slice, epifluorescence and confocal imaging
Excerpt: Two hundred thousand (200,000) viable glioma cells labelled by lentiviral GFP expression were orthotopically injected in the brain of an immunodeficient mouse following proper protocols. After approximately four weeks of tumor growth, the mouse was sacrificed and the mouse brain was then transported in ice cold culture medium prior to slicing. A vibratome tissue slicer was used to produce 400 μm-thick slices from a GBM xenograft mouse brain (the tissue was submerged in oxygenated ACSF during the slicing process). Then the slices were quickly transferred onto the PTFE membrane well inserts with pre-warmed culture medium and placed in an incubator. These slices were cultured for at least 24 hours (recovery) before being used for drug testing.
To proceed with drug testing, the GBM slice was transferred from the culture membrane well insert to the microfluidic apparatus by cutting the PTFE membrane out from the well insert and then placing it onto the plurality of open microchannels of the apparatus. […] Then the wells corresponding to the determined drug delivery channels were replaced with drug solution (1 mM of TMZ in culture medium; TMZ was chosen due to its clinical relevance to GBM), and then the apparatus was connected to a syringe pump with the total flow rate of 300 μL per hour in an incubator to initiate the drug delivery. […]

Cn1nnc2c(C(N)=O)ncn2c1=O [TMZ]
cell death (loss of GFP-labelled glioma cells) at drug exposure regions: selectivity of cell death in the TMZ region; also recorded: loss of GFP-labelled glioma cells
